From patent US6989364B1, “Methods for treating cardiac hypertrophy by administering IFN-γ” (Genentech, Inc., priority 1998, dated 2006)

What was measured:
[1] = system: adult rat cardiac myocytes; assay: Inhibition of PGF2α-induced spreading response of adult myocytes; assay type: cell-based
Description: Myocytes were pre-incubated with saline vehicle or IFN-γ (500 U/ml) on day of isolation. A second addition of vehicle or IFN-γ was performed 24h after isolation, along with the addition of either vehicle or PGF2α (10^−7 M). After an additional 72 hr incubation, cells were fixed in glutaraldehyde, stained with eosin Y and viewed by fluorescence microscopy. A, B, C Cardiac myocytes after 4 days in culture: control, PGF2α, and PGF2α+IFN-γ, respectively. D, E, F Histographs showing maximum breadth of rod shaped cardiac myocytes versus percent frequency of breadth occurrence. The maximum breadth of rod-shaped cells was determined by fluorescence microscopy and imaging software. At least 200 rod shaped cells from a single experiment were examined per group.
Myocytes were pre-incubated with saline vehicle or IFN-γ on day of isolation. A second amount of IFN-γ was added 24 hr after isolation, along with the addition of either vehicle or PGF2α (10^−7 M). After an additional 72 hr incubation, cells were fixed in glutaraldehyde, stained with eosin Y and viewed under fluorescence. Quantitation of myocyte morphology: A control, B PGF2α, C PGF2α+IFN-γ (25 U/ml), D PGF2α+IFN-γ (100 U/ml), E PGF2α+IFN-γ (500 U/ml). Histographs showing maximum breadth of rod shaped cardiac myocytes versus percent frequency of breadth occurrence. The maximum breadth of rod-shaped cells was determined by fluorescence microscopy and imaging software. At least 200 rod shaped cells from a single experiment were examined per group.
In this assay, ventricular myocytes are isolated from a single (male Sprague-Dawley) rat, essentially following a modification of the procedure described in detail by Piper et al., “Adult ventricular rat heart muscle cells.” In: Cell Culture Techniques in Heart and Vessel Research, H. M. Piper, ed., Berlin: Spinger-Verlag, 1990, pp. 36–60. This procedure permits the isolation of adult ventricular myocytes and the long-term culture of these cells in the rod-shaped phenotype. […] Piper et al., supra; Lai et al., Am J. Physiol. 1996; 271 (Heart Circ. Phvsiol. 40):H2197–H2208. The inhibition of myocyte spreading induced by PGF2α, or PGF2α analogs, (e.g. fluprostenol) and phenylephrine by various potential inhibitors of cardiac hypertrophy is then tested. A detailed protocol is described in the examples that follow.
Adult myocyte cultures The procedure used for the isolation of ventricular myocytes from adult rats was a modification of a procedure described by Piper et al., supra, and is detailed in Lai et al., supra. For each myocyte preparation, one male Sprague-Dawley rat weighing about 250 g was anesthetized with pentobarbital sodium, and the heart was removed. Extraneous tissue was trimmed from the heart, and it was mounted onto a Langendorff system that was temperature controlled at 37° C. The heart was perfused with about 40 ml of Krebs buffer (110 mM NaCl, 2.6 mM KCl, 1.2 mM KH2PO4, 1.2 mM MgSO4.7H2O, 25 mM NaHCO3 and 11 mM glucose). A solution containing 30 mg of collagenase and 12.5 μl of 100 mM CaCl2 in 50 ml of Krebs buffer was then recirculated through the heart for 30 minutes. The heart was removed from the Langendorff apparatus, and the atria and connective tissues were removed. The ventricles were cut into 2 mm cubes with dissecting scissors, and further digested in a fresh collagenase solution (30 mg collagenase and 400 mg BSA dissolved in Krebs buffer with 12.5 μl of 100 mM CaCl2) for five minutes at 37° C. During the digestion, the tissue suspension was gently band shaken one time per minute. After the digestion, the supernatant was removed and saved, and the remaining tissue was further digested in fresh collagenase solution for an additional five minutes.

[2] = system: male Sprague/Dawley (SD) rats; assay: Hemodynamic assessment (MAP) in rats treated with fluprostenol and/or IFN-γ; assay type: in vivo, rat; details: conscious rats, 14 days of treatment (FIG. 5)
Description: Hemodynamic assessment Thirteen days after treatment, rats were anesthetized with intraperitoreal injection of ketamine 80 mg/kg (Aveco Co., Inc., Fort Dodge, Iowa) and xylazine 10 mg/kg (Rugby Laboratories, Inc., Rockville Center, N.Y.). A catheter (PE-10 fused with PE 50) filled with heparin-saline solution (50 U/ml) was implanted into the abdominal aorta, via the right femoral artery, for measurement of mean arterial pressure (MAP) and heart rate (HR). The catheter was exteriorized and fixed at the back of the neck.
One day after catheterization, the arterial catheter was connected to a Model CP 10 pressure transducer (Century Technology Company, Inglewood, Calif., USA) that was coupled to a Grass Model 7 polygraph (Grass Instruments, Quincy, Mass., USA). MAP and HR were measured simultaneously in conscious, unrestrained rats.

[3] = system: male Sprague/Dawley (SD) rats; assay: Cardiac hypertrophy induced by fluprostenol in vivo: body and organ weights; parameters: species or system rat
Excerpt: This pharmacological model tests the ability of IFN-γ to inhibit cardiac hypertrophy induced in rats (e.g. male Wistar or Sprague-Dawley) by subcutaneous injection of fluprostenol (an agonist analog of PGF2α). It is known that rats with pathologic cardiac hypertrophy induced by myocardial infarction have chronically elevated levels of extractable PGF2α in their myocardium. Lai et al, Am. J. Physiol. (Heart Circ. Physiol.) 271:H2197–H2208 (1996). Accordingly, factors that can inhibit the effects of fluprostenol on myocardial growth in vivo are potentially useful for treating cardiac hypertrophy. The effects of IFN-γ on cardiac hypertrophy are determined by measuring the weight of heart, ventricles, and left ventricle (normalized by body weight) relative to fluprostenol-treated rats not receiving IFN-γ. A detailed description of this assay is provided in the examples.
Animals All experimental procedures conformed to the guiding principles of the American Physiology Society, and were approved by Genentech's Institutional Animal Care and Use Committee. The animals used in this study were male Sprague/Dawley (SD) rats (8 weeks of age, Charles River Breeding Laboratories, Inc.). The animals were acclimated to the facility for at least one week before experiments, fed a pelleted rat chow and water ad libitum, and housed in a light and temperature controlled room.
Administration of fluprostenol and/or IFN-γ Rats received subcutaneous injection of fluprostenol (Cayman Chemical, Ann Arbor, Mich.) at 0.15 mg/kg, recombinant mouse IFN-γ (Genentech, Inc., South San Francisco, Calif.) at 0.08 mg/kg, combination of fluprostenol and IFN-γ, or saline vehicle, twice a day for 14 days. In the IFN-γ and fluprostenol+IFN-γ groups, animals were pretreated with IFN-γ for one day. Body weight was measured before and after treatment. A previous study has shown that the dose of fluprostenol used here is the lowest dose which produces a significant cardiac hypertrophy in rats. Lai et al., supra.
Measurement of organ weights Under anesthesia with ketamine/xylazine, the heart, kidney, and spleen were removed, dissected and weighed. The left ventricle was stored at […] for evaluation of gene expression.
Statistical analyisis Results are expressed as mean±SEM. One way analysis of variance (ANOVA) was performed to assess differences in parameters between groups. Significant differences were then subjected to post hoc analysis using Newman-Keuls method; P<0.05 was considered significant.

[4] = system: left ventricle of male Sprague/Dawley (SD) rats; assay: Cardiac gene expression (real-time RT-PCR) in rats treated with fluprostenol and/or IFN-γ; assay type: in vivo, rat; details: normalized to GAPDH, FIG. 6
Excerpt: FIGS. 6A–6D Bargraphs showing the effect of fluprostenol (FLUP) and IFN-γ on: A Skeletal actin (SKA); B Sarcoplasmic reticulum calcium ATPase (SRCA); C Collagen I (COL I); D Atrial natriuretic factor (ANF) expression. Expression levels are normalized to glyceraldehyde-3-phosphate dehydrogenase (GAPDH) message. VEH is vehicle. There were 7 animals per group and the data are presented as the mean±SEM. P<0.05 vs VEH group.
RNA preparation Total RNA was isolated using RNeasy Maxi Columns (Qïägen) according to the manufacturer's instructions.
RT-PCR Real-time RT-PCR (TaqMan) technology was used to compare the gene expression between the various treatment groups. An oligonucleotide probe containing a fluorescent reporter dye, […], at the 3′-end was designed to hybridize to the amplicon defined by two PCR primers. A 3′-blocking phosphate prevents extension of the probe. The reporter dye is released from the probe by the 5′ exonuclease activity of Taq polymerase during the extension phase of PCR reaction. […] The threshold cycle number (Ct), defined as the point where the reporter fluorescence reaches a value greater than 10 times the standard deviation of the baseline, is […] to the amount of amplicon produced from the sample. Since the fluorescence is detected during the exponential phase of the amplification, none of the reaction components are limiting. In each experiment, a control is analyzed that lacks the RNA template to monitor for contamination, and another control is included where the RT step is omitted to eliminate amplification of possible contaminating DNA as the source of the signal. Reactions are optimized to give the greatest fluorescence signal and smallest Ct by titration of magnesium and primer concentrations, and the product is run on an agarose gel to verify the presence of a single band at the predicted molecular weight. […]
Quantitation of the TaqMan results was performed as described by Heid et al., Genome Res. 6:986–994 (1996), with modifications. […]

[5] = system: male Sprague/Dawley (SD) rats; details: s.c. twice a day; previous study, Lai et al.; cited from earlier work
[6] = s.c. twice a day for 14 days, fluprostenol 0.15 mg/kg, IFN-γ 0.08 mg/kg, mean ± SEM

## prostaglandin F2α [PGF2α]
[1]; 0.1 μM, P<0.001
  Spreading response of adult myocytes (maximum cell breadth) vs control cells: induced a significant change in the maximum cell breadth

## IFN-α
[1]
  Ability of other cytokines to inhibit PGF2α induced myocyte spreading: could not inhibit the spreading response

## IL-1β: other cytokine tested for inhibition of the spreading response
[1]
  Ability of other cytokines to inhibit PGF2α induced myocyte spreading: could not inhibit the spreading response

## IL-6: other cytokine tested for inhibition of the spreading response
[1]
  Ability of other cytokines to inhibit PGF2α induced myocyte spreading: could not inhibit the spreading response

## TNF-α
[1]
  Ability of other cytokines to inhibit PGF2α induced myocyte spreading: could not inhibit the spreading response

## O=C(O)CCC/C=C\C[C@@H]1[C@@H](/C=C/[C@@H](O)COc2cccc(C(F)(F)F)c2)[C@H](O)C[C@@H]1O (racemic) [fluprostenol, reference compound]
[2]
  Mean arterial pressure (MAP) compared to vehicle: significant decline
[3]; 14 days, fluprostenol and IFN-γ alone vs vehicle, fluprostenol+IFN-γ vs fluprostenol group
  Ratio of heart, ventricular, and left ventricular weights to body weight (FIG. 4): significant increase
[3]; before treatment, mean ± SEM
  BWO, basal levels of body weight: 292.3 ± 2.2 g
[3]; [6]
  BW, body weight post treatment: 381.1 ± 4.4 g
  HW, heart weight: 1.000 ± .018 g
  KW, kidney weight: 1.397 ± .038 g
  KW/BW, kidney weight to body weight: 3.632 ± .076 g/kg
  LVW, left ventricular weight: .740 ± .013 g
  SW, spleen weight: .880 ± .048 g
  SW/BW, spleen weight to body weight: 2.309 ± .130 g/kg
  VW, ventricular weight: .957 ± .017 g
  ΔBW, BW-BWO: 91.9 ± 4.0 g
[4]
  Abundance of mRNA for α-skeletal actin, collagen I, and natriuretic factor in the heart vs vehicle: increase in the abundance of mRNA
  mRNA for sarcoplasmic reticulum calcium ATPase in the heart vs vehicle: significantly reduced
[5]
  Lowest dose which produces a significant cardiac hypertrophy in rats: 0.15 mg/kg

B1: IL-1α: other cytokine tested for inhibition of the spreading response (protein, UniProt P01583 113-271, looked up)
Interleukin-1 alpha: SAPFSFLSNVKYNFMRIIKYEFILNDALNQSIIRANDQYLTAAALHNLDEAVKFDMGAYKSSKDDAKITVILRISKTQLYVTAQDEDQPVLLKEMPEIPKTITGSETNLLFFWETHGTKNYFTSVAHPNLFIATKQDYWVCLAGGPPSITDFQILENQA
[1]
  Ability of other cytokines to inhibit PGF2α induced myocyte spreading: could not inhibit the spreading response
